Reference: US20230024096A1, “BIFUNCTIONAL COMPOUNDS FOR THE TREATMENT OF CANCER” (Hoffmann-La Roche Inc., priority 2019, published 2023)

Biological target: T1, SMARCA2 (Homo sapiens, UniProt P51531)
T1 construct: endogenous in cells; host or cells: HT1080 (CRISPR HiBiT knock-in clone, generated in house)
Assay: SMARCA2 HiBiT degradation assay (cellular)
Format: cell-based
Conditions: table head names A549; for DC50: 6 h incubation, HiBiT-tagged SMARCA2, luminescence read-out, read-out: HiBit A549 SMARCA2 IP (nM) 6 h; for Emax: A549, 6 h incubation, Emax = amount of residual protein remaining in the cell following compound treatment

T1 sequence (P51531 whole entry): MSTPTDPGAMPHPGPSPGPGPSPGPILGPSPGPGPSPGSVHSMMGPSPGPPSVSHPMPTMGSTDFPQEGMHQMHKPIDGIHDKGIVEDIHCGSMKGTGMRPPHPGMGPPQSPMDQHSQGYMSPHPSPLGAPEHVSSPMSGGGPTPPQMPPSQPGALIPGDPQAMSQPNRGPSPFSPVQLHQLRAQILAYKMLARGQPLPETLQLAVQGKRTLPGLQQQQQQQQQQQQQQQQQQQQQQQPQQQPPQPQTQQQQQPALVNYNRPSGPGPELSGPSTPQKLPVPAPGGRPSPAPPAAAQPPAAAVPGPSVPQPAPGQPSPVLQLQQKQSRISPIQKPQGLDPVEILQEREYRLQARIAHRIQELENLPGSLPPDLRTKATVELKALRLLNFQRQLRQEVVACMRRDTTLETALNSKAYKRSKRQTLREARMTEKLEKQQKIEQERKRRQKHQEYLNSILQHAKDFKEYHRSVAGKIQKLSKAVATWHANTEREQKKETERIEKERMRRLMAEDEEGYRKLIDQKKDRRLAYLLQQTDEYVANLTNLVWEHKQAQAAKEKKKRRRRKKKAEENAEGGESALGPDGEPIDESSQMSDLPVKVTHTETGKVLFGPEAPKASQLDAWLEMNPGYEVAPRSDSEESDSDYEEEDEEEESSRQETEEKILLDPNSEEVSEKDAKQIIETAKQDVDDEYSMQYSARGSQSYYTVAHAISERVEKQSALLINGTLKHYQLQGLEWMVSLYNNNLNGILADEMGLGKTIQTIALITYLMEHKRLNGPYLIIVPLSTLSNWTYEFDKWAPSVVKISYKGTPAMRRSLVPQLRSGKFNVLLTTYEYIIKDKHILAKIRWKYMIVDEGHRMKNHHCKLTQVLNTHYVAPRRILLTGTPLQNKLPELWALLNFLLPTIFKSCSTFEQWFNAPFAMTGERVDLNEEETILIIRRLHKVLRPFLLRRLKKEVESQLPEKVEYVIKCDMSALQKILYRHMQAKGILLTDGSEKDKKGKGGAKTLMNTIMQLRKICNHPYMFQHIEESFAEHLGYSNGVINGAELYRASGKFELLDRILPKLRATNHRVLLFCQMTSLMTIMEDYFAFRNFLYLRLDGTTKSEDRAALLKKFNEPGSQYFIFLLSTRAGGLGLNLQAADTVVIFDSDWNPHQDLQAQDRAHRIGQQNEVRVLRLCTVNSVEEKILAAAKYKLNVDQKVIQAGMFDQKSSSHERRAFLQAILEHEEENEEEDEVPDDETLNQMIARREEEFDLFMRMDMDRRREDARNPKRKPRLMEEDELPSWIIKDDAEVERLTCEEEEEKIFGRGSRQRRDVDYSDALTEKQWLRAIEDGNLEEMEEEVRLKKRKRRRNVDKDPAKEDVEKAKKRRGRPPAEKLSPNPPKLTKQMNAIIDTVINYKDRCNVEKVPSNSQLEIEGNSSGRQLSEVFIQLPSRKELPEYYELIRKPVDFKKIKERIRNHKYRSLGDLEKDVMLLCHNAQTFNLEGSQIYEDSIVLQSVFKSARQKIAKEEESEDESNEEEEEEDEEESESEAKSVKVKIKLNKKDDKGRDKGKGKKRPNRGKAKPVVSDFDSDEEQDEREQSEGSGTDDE

| DC50 [nM] | Emax [%] | Structure (SMILES) |
| --- | --- | --- |
| 99 | 37 | Nc1nnc(-c2cc(F)ccc2O)cc1N1CCC(CNC(=O)CCCN2CCC(c3ccc(OC4CCC(=O)NC4=O)cc3)CC2)(c2ccccc2)CC1 (centres unmarked) [Example 183, N-[[1-[3-amino-6-(5-fluoro-2-hydroxy-phenyl)pyridazin-4-yl]-4-phenyl-4-piperidyl]methyl]-4-[4-[4-[(2,6-dioxo-3-piperidyl)oxy]phenyl]-1-piperidyl]butanamide] |
| 35 | 50 | Nc1nnc(-c2ccccc2O)cc1N1CCC(C(=O)N2CCC(NC(=O)C3CCN(c4ccc5c(c4)C(=O)N(C4CCC(=O)NC4=O)C5=O)CC3)CC2)(c2ccccc2)CC1 (centres unmarked) [Example 119, N-(1-(1-(3-amino-6-(2-hydroxyphenyl)pyridazin-4-yl)-4-phenylpiperidine-4-carbonyl)piperidin-4-yl)-1-(2-(2,6-dioxopiperidin-3-yl)-1,3-dioxoisoindolin-5-yl)piperidine-4-carboxamide] |
| 802 | 62 | Nc1nnc(-c2ccccc2O)cc1OC1CCCN(c2ccc(N3CCN(CCCCCCCCCc4ccnc(CNc5cccc6c5C(=O)N(C5CCC(=O)NC5=O)C6=O)c4)CC3)cc2)C1 (centres unmarked) [Example 139, 4-[[4-[9-[4-[4-[3-[3-amino-6-(2-hydroxyphenyl)pyridazin-4-yl]oxy-1-piperidyl]phenyl]piperazin-1-yl]nonyl]-2-pyridyl]methylamino]-2-(2,6-dioxo-3-piperidyl)isoindoline-1,3-dione] |
| 718 | 63 | Nc1nnc(-c2ccccc2O)cc1N1CC(Oc2cccc(N3CCN(C(=O)CCCCCCCCCNc4cccc5c4C(=O)N(C4CCC(=O)NC4=O)C5=O)CC3)c2)C1 (centres unmarked) [Example 39, 4-[[10-[4-[3-[1-[3-amino-6-(2-hydroxyphenyl)pyridazin-4-yl]azetidin-3-yl]oxyphenyl]piperazin-1-yl]-10-oxo-decyl]amino]-2-(2,6-dioxo-3-piperidyl)isoindoline-1,3-dione] |
| 103 | 33 | Nc1nnc(-c2ccccc2O)cc1N1CCC(C(=O)NCC2CCN(C(=O)CCCN3CCC(c4ccc(OC5CCC(=O)NC5=O)cc4)CC3)CC2)(c2ccccc2)CC1 (centres unmarked) [Example 104, 1-(3-amino-6-(2-hydroxyphenyl)pyridazin-4-yl)-N-((1-(4-(4-(4-((2,6-dioxopiperidin-3-yl)oxy)phenyl)piperidin-1-yl)butanoyl)piperidin-4-yl)methyl)-4-phenylpiperidine-4-carboxamide] |
| 107 | 44 | CC(Oc1cccc2c1C(=O)N(C1CCC(=O)NC1=O)C2=O)c1cn(CCCCCCOCCN2CCN(c3ccc(N4CCC[C@H](Oc5cc(-c6ccccc6O)nnc5N)C4)cc3)CC2)nn1 (mixture of isomers) [Example 202, 2-(2,6-dioxo-3-piperidyl)-4-[1-[1-[6-[2-[4-[4-[rac-(3S)-3-[3-amino-6-(2-hydroxyphenyl)pyridazin-4-yl]oxy-1-piperidyl]phenyl]piperazin-1-yl]ethoxy]hexyl]triazol-4-yl]ethoxy]isoindoline-1,3-dione] |
| 579 | 53 | Nc1nnc(-c2ccccc2O)cc1N1CCC(C(=O)N2CC3(CCN(C(=O)CC4CCN(c5ccc6c(c5)C(=O)N(C5CCC(=O)NC5=O)C6=O)CC4)C3)C2)(c2ccccc2)CC1 (centres unmarked) [Example 187, 5-(4-(2-(2-(1-(3-amino-6-(2-hydroxyphenyl)pyridazin-4-yl)-4-phenylpiperidine-4-carbonyl)-2,6-diazaspiro[3.4]octan-6-yl)-2-oxoethyl)piperidin-1-yl)-2-(2,6-dioxopiperidin-3-yl)isoindoline-1,3-dione] |
| 42 | 50 | Nc1nnc(-c2ccccc2O)cc1N1CCC(C(=O)N2CC3(CCN(C(=O)CC4CCN(c5ccc6c(c5)C(=O)N(C5CCC(=O)NC5=O)C6=O)CC4)CC3)C2)(c2ccccc2)CC1 (centres unmarked) [Example 164, 5-(4-(2-(2-(1-(3-amino-6-(2-hydroxyphenyl)pyridazin-4-yl)-4-phenylpiperidine-4-carbonyl)-2,7-diazaspiro[3.5]nonan-7-yl)-2-oxoethyl)piperidin-1-yl)-2-(2,6-dioxopiperidin-3-yl)isoindoline-1,3-dione] |
| 148 | 42 | Nc1nnc(-c2ccccc2O)cc1N1CCC(C(=O)N2CC3(CCN(C(=O)C4CCN(c5ccc6c(c5)C(=O)N(C5CCC(=O)NC5=O)C6=O)CC4)C3)C2)(c2ccccc2)CC1 (centres unmarked) [Example 186, 5-(4-(2-(1-(3-amino-6-(2-hydroxyphenyl)pyridazin-4-yl)-4-phenylpiperidine-4-carbonyl)-2,6-diazaspiro[3.4]octane-6-carbonyl)piperidin-1-yl)-2-(2,6-dioxopiperidin-3-yl)isoindoline-1,3-dione] |
| 30 | 37 | Nc1nnc(-c2ccccc2O)cc1N1CCC(C(=O)N2CC3(CCN(CCC4CCN(c5ccc6c(c5)C(=O)N(C5CCC(=O)NC5=O)C6=O)CC4)C3)C2)(c2ccccc2)CC1 (centres unmarked) [Example 191, 5-(4-(2-(2-(1-(3-amino-6-(2-hydroxyphenyl)pyridazin-4-yl)-4-phenylpiperidine-4-carbonyl)-2,6-diazaspiro[3.4]octan-6-yl)ethyl)piperidin-1-yl)-2-(2,6-dioxopiperidin-3-yl)isoindoline-1,3-dione] |
| 19 | 21 | Nc1nnc(-c2ccccc2O)cc1N1CC(Oc2cccc(N3CCN(C(=O)CCC4CCN(c5ccc6c(c5)C(=O)N(C5CCC(=O)NC5=O)C6=O)CC4)CC3)c2)C1 (racemic) [Example 153, rac-5-[4-[3-[4-[3-[1-[3-amino-6-(2-hydroxyphenyl)pyridazin-4-yl]azetidin-3-yl]oxyphenyl]piperazin-1-yl]-3-oxo-propyl]-1-piperidyl]-2-(2,6-dioxo-3-piperidyl)isoindoline-1,3-dione] |
| 31 | 28 | Nc1nnc(-c2ccccc2O)cc1N1CCC(C(=O)N2CCN(C(=O)C3CCN(c4ccc5c(c4)C(=O)N(C4CCC(=O)NC4=O)C5=O)CC3)CC2)(c2ccccc2)CC1 (centres unmarked) [Example 120, 5-(4-(4-(1-(3-amino-6-(2-hydroxyphenyl)pyridazin-4-yl)-4-phenylpiperidine-4-carbonyl)piperazine-1-carbonyl)piperidin-1-yl)-2-(2,6-dioxopiperidin-3-yl)isoindoline-1,3-dione] |

| Structure (SMILES) | DC50 [nM] | Emax [%] |
| --- | --- | --- |
| Nc1nnc(-c2ccccc2O)cc1N1CC2CCC(C1)N2c1cccc(OCCN2CCN(C(=O)N3CCN(c4ccc(NC5CCC(=O)NC5=O)cc4)CC3)CC2)c1 (racemic) [Example 81, rac-3-[4-[4-[4-[2-[3-[3-[3-amino-6-(2-hydroxyphenyl)pyridazin-4-yl]-3,8-diazabicyclo[3.2.1]octan-8-yl]phenoxy]ethyl]piperazine-1-carbonyl]piperazin-1-yl]anilino]piperidine-2,6-dione] | 16 | 56 |
| Nc1nnc(-c2ccccc2O)cc1N1CC2CCC(C1)N2c1cccc(OCCN2CCN(C(=O)CC3CCN(c4cccc5c4C(=O)N(C4CCC(=O)NC4=O)C5=O)CC3)CC2)c1 (racemic) [Example 15, rac-4-[4-[2-[4-[2-[3-[3-[3-amino-6-(2-hydroxyphenyl)pyridazin-4-yl]-3,8-diazabicyclo[3.2.1]octan-8-yl]phenoxy]ethyl]piperazin-1-yl]-2-oxo-ethyl]-1-piperidyl]-2-(2,6-dioxo-3-piperidyl)isoindoline-1,3-dione] | 35 | 52 |
| Nc1nnc(-c2ccccc2O)cc1N1CC2CCC(C1)N2c1cccc(OCCN2CCN(C(=O)CCCCCCCNc3cccc4c3C(=O)N(C3CCC(=O)NC3=O)C4=O)CC2)c1 (racemic) [Example 11, rac-4-[[8-[4-[2-[3-[3-[3-amino-6-(2-hydroxyphenyl)pyridazin-4-yl]-3,8-diazabicyclo[3.2.1]octan-8-yl]phenoxy]ethyl]piperazin-1-yl]-8-oxo-octyl]amino]-2-(2,6-dioxo-3-piperidyl)isoindoline-1,3-dione] | 146 | 64 |
| Nc1nnc(-c2ccccc2O)cc1N1CC2CCC(C1)N2c1cccc(OCCN2CCN(C(=O)CCCCCCCCNc3cccc4c3C(=O)N(C3CCC(=O)NC3=O)C4=O)CC2)c1 (centres unmarked) [Example 6, 4-[[9-[4-[2-[3-[3-[3-amino-6-(2-hydroxyphenyl)pyridazin-4-yl]-3,8-diazabicyclo[3.2.1]octan-8-yl]phenoxy]ethyl]piperazin-1-yl]-9-oxo-nonyl]amino]-2-(2,6-dioxo-3-piperidyl)isoindoline-1,3-dione] | 334 | 58 |
| Nc1nnc(-c2ccccc2O)cc1N1CC2CCC(C1)N2c1cccc(CN2CCN(C(=O)C3CCN(c4ccc5c(c4)C(=O)N(C4CCC(=O)NC4=O)C5=O)CC3)CC2)n1 (racemic) [Example 131, rac-5-[4-[4-[[6-[3-[3-amino-6-(2-hydroxyphenyl)pyridazin-4-yl]-3,8-diazabicyclo[3.2.1]octan-8-yl]-2-pyridyl]methyl]piperazine-1-carbonyl]-1-piperidyl]-2-(2,6-dioxo-3-piperidyl)isoindoline-1,3-dione] | 27 | 32 |
| Nc1nnc(-c2ccccc2O)cc1N1CC2CCC(C1)N2c1cccc(OCCN2CCN(C(=O)CN3CCC(c4ccc(OC5CCC(=O)NC5=O)cc4)CC3)CC2)c1 (racemic) [Example 43, rac-3-[4-[1-[2-[4-[2-[3-[3-[3-amino-6-(2-hydroxyphenyl)pyridazin-4-yl]-3,8-diazabicyclo[3.2.1]octan-8-yl]phenoxy]ethyl]piperazin-1-yl]-2-oxo-ethyl]-4-piperidyl]phenoxy]piperidine-2,6-dione] | 32 | 31 |
| Nc1nnc(-c2ccccc2O)cc1N1CC2CCC(C1)N2c1cccc(OCCN2CCN(C(=O)CC3CCN(c4ccc5c(c4)C(=O)N(C4CCC(=O)NC4=O)C5=O)CC3)CC2)c1 (racemic) [Example 33, rac-5-[4-[2-[4-[2-[3-[3-[3-amino-6-(2-hydroxyphenyl)pyridazin-4-yl]-3,8-diazabicyclo[3.2.1]octan-8-yl]phenoxy]ethyl]piperazin-1-yl]-2-oxo-ethyl]-1-piperidyl]-2-(2,6-dioxo-3-piperidyl)isoindoline-1,3-dione] | 15 | 39 |
